Assay [1] relates to CCRF-CEM cells. The assay can be described thus: Resazurin viability assay, CCRF-CEM cells (combination, Bliss Independence CI). The conditions noted are these: 0.5 μm of BKM120 as used in combination, FIG. 1, CCRF-CEM. The format is cell-based, human. Here is the method:
The CCRF-CEM (ATCC CCL-119) cell line is derived from T lymphoblasts from peripheral blood of a child with acute leukaemia. The cells were grown according to the recommendations of the supplier. The culture medium, RPMI-1640, was supplemented with 10 μL/mL glutamine, 2 μL/mL gentamicin and 10% foetal bovine serum (FBS) to make complete growth medium (CGM). The cells were incubated at 37 °C in a humidified atmosphere with 5% CO2. Passaging was conducted every 2 - 4 days to maintain a cell density below 2.5×10^6 cells/mL, and thus ensure a continuous proliferation. Cells were allowed to acclimatise for two weeks after establishment before they were utilised for experimental purposes and discarded after three months. […] Resazurin was metabolized for 1-2 h (37° C., 5% CO2) before fluorescence was read at 544 nm excitation and 590 nm emission wavelength (BioTek Synergy HT). […] Statistical significance between treatments were determined using Welch's ANOVA with Tamhane's T2 correction for multiple comparisons, p<0.05 was considered statistically significant. […] The combination index was calculated using: [formula] • where CI is the combination index, EA represent the effect of drug A given as a monotherapy, EB represent the effect of drug B given as a monotherapy and EAB represent drugs A and B given in combination at the same concentrations as the monotherapies. […]
In general terms: Alamar Blue is a resazurin reagent that responds to reducing activity.

Assay [2] concerns MDA-MB-436 cells. The assay can be described thus: Resazurin viability assay, MDA-MB-436 cells (monotherapy and combination). In kind it is cell-based, human. The settings on record: for IC50: MDA-MB-436, 72 h treatment, n = 3. From the text:
The MDA-MB-436 cell line was from ATCC. The MDA-MB-436 cell line was established from a pleural effusion of a patient with metastatic breast adenocarcinoma. The cell line is of triple negative breast cancer, however the MDA-MB-436 cell line is classified as mesenchymal stem-like with high enrichment of genes for biological processes such as cell motility (Rho pathway), cellular differentiation and growth pathways (ALK pathway, TGF-β signalling and Wnt/β-catenin pathway). MDA-MB-436 cells were maintained in RPMI-1640 culturing media supplemented with 10% FBS, 0.3 mg/mL L-glutamine and 0.1 mg/mL gentamicin, 10 mcg/mL insulin and incubated in 37° C. humidified atmosphere. Sub-culture using trypsin-EDTA 0.5% every 3-4 days with cell density of 2-3 million cells in a T75 cm2 culturing flask to ensure actively proliferating cells. The MDA-MB-436 cells was seeded in 1×10^4 cells/well. After 24 h of cultivation, when the cells were ˜30-50% confluent, the medium was replaced with serum free growth medium without gentamycin to ensure synchronization of the cells and to increase cell sensitivity to treatment. The MDA-MB-436 cells were starved in starvation media with insulin. The medium was replaced with fresh serum free medium with or without compound 2, NVP-BKM120 (Cayman Chemicals, US). The cells were observed under the microscope to evaluate possible morphology changes and signs of stress before the addition of resazurin according to the manufacturer's instructions (RnD Systems, UK). MDA-MB-436 cells were incubated for 72 h. Resazurin was metabolized for 1-2 h (37° C., 5% CO2) before fluorescence was read at 544 nm excitation and 590 nm emission wavelength (BioTek Synergy HT). The experiments were performed in series of eight wells per treatment and repeated 2-3 times. […] Statistical significance between treatments were determined using Welch's ANOVA with Tamhane's T2 correction for multiple comparisons, p<0.05 was considered statistically significant.

Structures are written as SMILES. Bounds are passed on as bounds.

`Nc1cc(C(F)(F)F)c(-c2cc(N3CCOCC3)nc(N3CCOCC3)n2)cn1` [BKM120, buparlisib, reference compound]: the expected inhibition in assay [1] turned out to be 10%. Also, the viability (commonly the share of living cells, or the viability signal relative to a control) at 0.4 µM in assay [2] (Homo sapiens, 72 h, BKM120 0.4 μM alone, MDA-MB-436, relative to untreated control set to 100%) came out at 84 ± 7%. Further, the viability at 1.1 µM in assay [2] (Homo sapiens, 72 h, BKM120 1.1 μM alone, MDA-MB-436, relative to untreated control set to 100%) was 45 ± 10%. Further, the IC50 (as a rule, the concentration that inhibits the measured activity by half) in assay [2] (Homo sapiens) is 1.2 µM.

Take `CCCCCCCOc1ccc(OCC(=O)c2nc(C(=O)OC)cs2)cc1` [Compound 2]: the viability at 5 µM in assay [2] (Homo sapiens, 72 h, Cmpd 2 5 μM alone, MDA-MB-436, relative to untreated control set to 100%) was found to be 92 ± 3%. For the same molecule, the viability at 6.5 µM in assay [2] (Homo sapiens, 72 h, Cmpd 2 6.5 μM alone, MDA-MB-436, relative to untreated control set to 100%) came to 82 ± 6%. For the same molecule, the viability at 7.5 µM in assay [2] (Homo sapiens, 72 h, Cmpd 2 7.5 μM alone, MDA-MB-436, relative to untreated control set to 100%) amounted to 76 ± 4%. In addition, in assay [2] (Homo sapiens, 72 h, Cmpd 2 10 μM alone, MDA-MB-436, relative to untreated control set to 100%), the viability at 10 µM was found to be 60 ± 10%. In addition, the IC50 in assay [2] (Homo sapiens) turned out to be 10.4 µM. In addition, the “concentration at which viability was reduced significantly compared to the untreated control” value in assay [2] (MDA-MB-436, 72 h, control set to 100% viability) was at least 9 µM.
